Experimental data from PubChem BioAssay AID248 (DTP/NCI, 2004).
Several values for one entry are separate records, joined by “and”; a condition that tells them apart may be missing. Equal values may be shown once. Inconclusive results and toxic doses are left out. No stated cut-off is given here; in the data, active means T/C of 150% or more; inactive means T/C below 125%.

Test system: L1210 leukemia ip in BDF1 mice, survival T/C
Experiment: NCI In Vivo Anticancer Drug Screen. Data for tumor model L1210 Leukemia (intraperitoneal) in B6D2F1 (BDF1) mice
Conditions: endpoint: mean survival time, higher = longer survival
Outline: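 Mice bearing the transplanted tumor received compound or vehicle. Survival of the treated group was divided by that of the vehicle-treated control group to give the ratio.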

[1] = dose: 100.0 mg/kg/injection, schedule: Q01DX001 (ip), vehicle: saline with Tween-80
[2] = dose: 100.0 mg/kg/injection, schedule: Q01DX009 (ip), vehicle: saline with Tween-80
[3] = dose: 200.0 mg/kg/injection, schedule: Q01DX001 (ip), vehicle: saline with Tween-80
[4] = dose: 200.0 mg/kg/injection, schedule: Q01DX009 (ip), vehicle: saline with Tween-80
[5] = dose: 100.0 mg/kg/injection, schedule: Q01DX009 (ip), vehicle: Klucel (hydroxypropylcellulose) (HPC)
[6] = dose: 100.0 mg/kg/injection, schedule: Q04DX003 (ip), vehicle: Klucel (hydroxypropylcellulose) (HPC)
[7] = dose: 200.0 mg/kg/injection, schedule: Q01DX009 (ip), vehicle: Klucel (hydroxypropylcellulose) (HPC)
[8] = dose: 200.0 mg/kg/injection, schedule: Q04DX003 (ip), vehicle: Klucel (hydroxypropylcellulose) (HPC)
[9] = dose: 400.0 mg/kg/injection, schedule: Q01DX009 (ip), vehicle: Klucel (hydroxypropylcellulose) (HPC)
[10] = dose: 400.0 mg/kg/injection, schedule: Q04DX003 (ip), vehicle: Klucel (hydroxypropylcellulose) (HPC)
[11] = dose: 100.0 mg/kg/injection, schedule: Q01DX001 (ip), vehicle: other
[12] = dose: 200.0 mg/kg/injection, schedule: Q01DX001 (ip), vehicle: other
[13] = dose: 400.0 mg/kg/injection, schedule: Q01DX001 (ip), vehicle: other
[14] = dose: 100.0 mg/kg/injection, schedule: Q04DX002 (ip), vehicle: Klucel (hydroxypropylcellulose) (HPC)
[15] = dose: 200.0 mg/kg/injection, schedule: Q04DX002 (ip), vehicle: Klucel (hydroxypropylcellulose) (HPC)
[16] = dose: 400.0 mg/kg/injection, schedule: Q04DX002 (ip), vehicle: Klucel (hydroxypropylcellulose) (HPC)
[17] = dose: 25.0 mg/kg/injection, schedule: Q01DX009 (ip), vehicle: saline
[18] = dose: 50.0 mg/kg/injection, schedule: Q01DX009 (ip), vehicle: saline

Measured: T/C

CNC(=O)C(CCC(=O)OC)NS(=O)(=O)c1ccc(C)cc1 (stereo unspecified)
inactive: [1] 100 % of control | [2] 104 % of control | [3] 100 % of control | [4] 96 % of control | dose: 400.0 mg/kg/injection, schedule: Q01DX001 (ip), vehicle: saline with Tween-80 100 % of control | dose: 400.0 mg/kg/injection, schedule: Q01DX009 (ip), vehicle: saline with Tween-80 104 % of control

O=C(Nc1nccs1)c1ccc(C(=O)Nc2nccs2)cc1
inactive: dose: 15.0 mg/kg/injection, schedule: Q01DX Z (ip), vehicle: carboxymethylcellulose (CMC) 93 % of control | dose: 30.0 mg/kg/injection, schedule: Q01DX Z (ip), vehicle: carboxymethylcellulose (CMC) 100 % of control | dose: 60.0 mg/kg/injection, schedule: Q01DX Z (ip), vehicle: carboxymethylcellulose (CMC) 100 % of control | dose: 120.0 mg/kg/injection, schedule: Q01DX Z (ip), vehicle: carboxymethylcellulose (CMC) 100 % of control and 90 % of control | dose: 180.0 mg/kg/injection, schedule: Q01DX Z (ip), vehicle: carboxymethylcellulose (CMC) 96 % of control | dose: 270.0 mg/kg/injection, schedule: Q01DX Z (ip), vehicle: carboxymethylcellulose (CMC) 96 % of control | dose: 400.0 mg/kg/injection, schedule: Q01DX Z (ip), vehicle: carboxymethylcellulose (CMC) 95 % of control

BrCc1c(CBr)c(CBr)c(CBr)c(CBr)c1CBr
inactive: [5] 98 % of control | [6] 94 % of control | [7] 97 % of control | [8] 96 % of control | [9] 97 % of control | [10] 96 % of control

CC[CH2][Sn]([Cl])([Cl])[CH2]CC.Oc1ccccc1C=NCCN=Cc1ccccc1O
inactive: dose: 2.5 mg/kg/injection, schedule: Q01DX009 (ip), vehicle: saline with Tween-80 101 % of control and 109 % of control | dose: 5.0 mg/kg/injection, schedule: Q01DX009 (ip), vehicle: saline with Tween-80 113 % of control | dose: 6.6 mg/kg/injection, schedule: Q01DX009 (ip), vehicle: saline with Tween-80 87 % of control

CCOC(=O)C(c1ccccc1)N(c1ccccc1)S(=O)(=O)c1ccc(C)cc1 (stereo unspecified)
inactive: [11] 116 % of control | [12] 98 % of control | [13] 101 % of control

Cc1ccc([N+](=O)[O-])c(OC(=O)Nc2ccccc2Cl)c1
inactive: [5] 105 % of control | [6] 100 % of control | [7] 100 % of control | [8] 97 % of control | [9] 107 % of control | [10] 100 % of control

OC1(Cc2ccccc2)CCCCC1
inactive: [11] 102 % of control | dose: 100.0 mg/kg/injection, schedule: Q04DX003 (ip), vehicle: saline with Tween-80 102 % of control | [12] 110 % of control | dose: 200.0 mg/kg/injection, schedule: Q04DX003 (ip), vehicle: saline with Tween-80 104 % of control | [13] 118 % of control | dose: 400.0 mg/kg/injection, schedule: Q04DX003 (ip), vehicle: saline with Tween-80 102 % of control

CC(=O)Oc1c2n(c(=O)c3cocc13)Cc1cc3ccccc3nc1-2
inactive: dose: 100.0 mg/kg/injection, schedule: Q01DX001 (ip), vehicle: Klucel (hydroxypropylcellulose) (HPC) 92 % of control | dose: 200.0 mg/kg/injection, schedule: Q01DX001 (ip), vehicle: Klucel (hydroxypropylcellulose) (HPC) 94 % of control | dose: 400.0 mg/kg/injection, schedule: Q01DX001 (ip), vehicle: Klucel (hydroxypropylcellulose) (HPC) 90 % of control

Cc1ccc2no[n+]([O-])c2c1
inactive: dose: 20.0 mg/kg/injection, schedule: Q01DX009 (ip), vehicle: Klucel (hydroxypropylcellulose) (HPC) 111 % of control | dose: 40.0 mg/kg/injection, schedule: Q01DX009 (ip), vehicle: Klucel (hydroxypropylcellulose) (HPC) 108 % of control

O=[N+]([O-])c1ccc(C(O)CC(O)(C(F)(F)F)C(F)(F)F)cc1 (stereo unspecified)
inactive: [5] 93 % of control | [6] 94 % of control | [7] 94 % of control | [8] 91 % of control | [9] 97 % of control | [10] 95 % of control

O=[N+]([O-])c1cc(COc2ccc(Cl)c(Cl)c2)ccc1Cl
inactive: [5] 95 % of control | [14] 97 % of control and 98 % of control and 102 % of control | [7] 93 % of control | [15] 96 % of control and 97 % of control and 110 % of control | dose: 200.0 mg/kg/injection, schedule: Q04DX002 (ip), vehicle: saline 102 % of control | [9] 96 % of control | [16] 93 % of control and 99 % of control and 103 % of control | dose: 400.0 mg/kg/injection, schedule: Q04DX002 (ip), vehicle: saline 97 % of control

CC(=O)Nc1ccc(C)c(NC(C)=O)c1
inactive: [6] 96 % of control | [8] 96 % of control | [10] 96 % of control

COc1cc(N2CCOCC2)ccc1N
inactive: [17] 89 % of control | dose: 25.0 mg/kg/injection, schedule: Q04DX003 (ip), vehicle: saline 100 % of control | [18] 95 % of control | dose: 50.0 mg/kg/injection, schedule: Q04DX003 (ip), vehicle: saline 101 % of control | dose: 100.0 mg/kg/injection, schedule: Q04DX003 (ip), vehicle: saline 103 % of control

C1=C(c2ccccc2)N(C2CC2)C(c2ccccc2)=CN1Cc1ccccc1
inactive: [14] 95 % of control | [15] 118 % of control | [16] 103 % of control

COc1ccc(OC)c2c1CCCC21OCCO1
inactive: dose: 50.0 mg/kg/injection, schedule: Q01DX009 (ip), vehicle: saline with Tween-80 105 % of control | [1] 95 % of control | [2] 102 % of control | [3] 96 % of control | [4] 100 % of control

Cc1ccccc1SSc1ccccc1C
inactive: [6] 94 % of control | [8] 97 % of control | [10] 91 % of control

CCC1CCC(NC(=O)NCCF)CC1 (stereo unspecified)
inactive: dose: 75.0 mg/kg/injection, schedule: Q01DX001 (ip), vehicle: other 98 % of control

O=C(O)C1C2C=CC(C3C=CC32)C1C(=O)O (stereo unspecified)
inactive: dose: 6.25 mg/kg/injection, schedule: Q01DX009 (ip), vehicle: saline 98 % of control | dose: 12.5 mg/kg/injection, schedule: Q01DX009 (ip), vehicle: saline 110 % of control | [17] 102 % of control and 115 % of control | [18] 96 % of control and 105 % of control | dose: 100.0 mg/kg/injection, schedule: Q01DX009 (ip), vehicle: saline 100 % of control | dose: 200.0 mg/kg/injection, schedule: Q01DX009 (ip), vehicle: saline 100 % of control | dose: 400.0 mg/kg/injection, schedule: Q01DX009 (ip), vehicle: saline 94 % of control

O=C(NOCc1cscn1)Nc1ccccc1
inactive: dose: 100.0 mg/kg/injection, schedule: Q01DX001 (ip), vehicle: saline 101 % of control | dose: 200.0 mg/kg/injection, schedule: Q01DX001 (ip), vehicle: saline 104 % of control | dose: 400.0 mg/kg/injection, schedule: Q01DX001 (ip), vehicle: saline 104 % of control
